Assay results taken from ChEMBL document CHEMBL5154877, “Novel Sphingosine Kinase 1 Inhibitor Suppresses Growth of Solid Tumor and Inhibits the Lung Metastasis of Triple-Negative Breast Cancer” (J Med Chem, 2022).

How the values were obtained:
[1] = molecular target: T1, Sphingosine kinase 2 (Homo sapiens, UniProt Q9NRA0)
T1 sequence (Q9NRA0 whole entry): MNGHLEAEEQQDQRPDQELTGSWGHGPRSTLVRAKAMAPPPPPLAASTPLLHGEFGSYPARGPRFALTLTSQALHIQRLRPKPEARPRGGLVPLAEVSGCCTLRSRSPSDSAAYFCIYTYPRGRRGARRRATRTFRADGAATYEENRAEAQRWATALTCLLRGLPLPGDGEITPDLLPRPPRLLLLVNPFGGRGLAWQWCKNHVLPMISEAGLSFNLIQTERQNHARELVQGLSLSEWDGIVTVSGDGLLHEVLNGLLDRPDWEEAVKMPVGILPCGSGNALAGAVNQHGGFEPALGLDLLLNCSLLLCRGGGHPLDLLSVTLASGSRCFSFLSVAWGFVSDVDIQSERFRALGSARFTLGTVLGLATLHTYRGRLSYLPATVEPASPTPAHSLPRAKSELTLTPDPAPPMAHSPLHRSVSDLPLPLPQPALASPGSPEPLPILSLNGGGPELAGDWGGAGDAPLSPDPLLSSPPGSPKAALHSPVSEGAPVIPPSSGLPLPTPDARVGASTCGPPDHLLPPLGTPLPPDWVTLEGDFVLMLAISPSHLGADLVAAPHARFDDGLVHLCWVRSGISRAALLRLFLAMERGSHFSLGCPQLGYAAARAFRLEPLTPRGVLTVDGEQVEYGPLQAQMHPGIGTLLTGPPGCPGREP

[2] = Tmax in mouse at 20 mg/kg, po; assay type: ADME, organism-based; conditions: in vivo
[3] = Cmax in mouse at 20 mg/kg, po; assay type: ADME, organism-based; parameters: dose 20 mg/kg, route po; conditions: in vivo
[4] = AUClast in mouse at 20 mg/kg, po; assay type: ADME, organism-based; parameters: time 0 - last, dose 20 mg/kg, route po; conditions: in vivo
[5] = AUClast in mouse at 2 mg/kg, iv; assay type: ADME, organism-based; parameters: time 0 - last, dose 2 mg/kg, route iv; conditions: in vivo
[6] = Half life in mouse at 20 mg/kg, po; assay type: ADME, organism-based; conditions: in vivo
[7] = Half life in mouse at 2 mg/kg, iv; assay type: ADME, organism-based; conditions: in vivo
[8] = Clearance in mouse at 2 mg/kg, iv; assay type: ADME, organism-based; conditions: in vivo
[9] = Oral bioavailability in mouse at 20 mg/kg; assay type: ADME, organism-based; conditions: in vivo

Row | IC50 [1] [µM] | Tmax [2] [min] | Cmax [3] [ng/mL] | AUC(0-t) [4] [ng·h/mL] | AUC(0-t) [5] [ng·h/mL] | half-life [6] [min] | half-life [7] [min] | clearance [8] [mL/min/kg] | bioavailability [9] [%] | SMILES
1 | > 10 | – | – | – | – | – | – | – | – | Cc1cc(CS(=O)(=O)c2ccccc2)cc(OCc2ccc(CN(C)CCO)cc2)c1
2 | > 10 | 15 | 83.6 | 100 | 201 | 107 | 107 | 164 | 4.95 | Cc1cc(CS(=O)(=O)C2CC2)cc(OCc2ccc(CN3CCC[C@@H]3CO)cc2)c1
